Source: patent US20250177376A1, “ALPHA 2 ADRENERGIC RECEPTOR BLOCKADE FOR THE TREATMENT OF C. DIFFICILE COLITIS” (University of Virginia Patent Foundation, priority 2022, published 2025)
“And” between values parts separate entries of the source, which are not always exact repeats. Equal values may be shown once. “Also recorded” adds a separate entry of the source. Where a name gives a salt, the structure may show the parent alone.

Tests used:
[1] = test system: C. difficile infection (CDI); test: Mouse CDI model: survival, weight loss, clinical score; type: in vivo, mice; details: for clinical score versus ORA-PLUS vehicle: oral gavage days -1, 0, 1, scores at days 2-8
[2] = test system: C. difficile; test: C. difficile counts (CFU) from cecal contents; type: in vivo; details: cecal contents at 18 hours post-infection
Experimental: C. difficile counts were quantified from cecal contents at 18 hours post-infection. Cecal contents were resuspended by mass in anaerobic PBS. […] Colony counts were made manually.

[3] = test system: C. difficile; test: C. difficile colonization in cecal contents by GDH ELISA; type: in vivo; details: cecal contents 2 days post-infection
Experimental: CDI colonization levels were also determined in PBS-treated mice (negative control) and mice treated with RX 821002. Briefly, C. difficile colonization in cecal contents of mice sacrificed 2 days post-infection was determined by a GDH ELISA from […], Inc. (Blacksburg, Virginia, United States of America; Catalog No. TL5025). Prior to the ELISA, cecal contents were resuspended in PBS by mass. The GDH ELISA was performed according to the manufacturer's instructions.

[4] = test system: toxin A/B; test: Toxin A/B ELISA of cecal contents; type: in vivo, C. difficile; details: cecal contents 2 days post-infection
Experimental: ADRA2A inhibition with RX 821002 was also tested for any affects on toxin A/B levels in mice. Briefly, […] in cecal contents of mice sacrificed 2 days post-infection was determined by a Toxin A/B ELISA from TECHLAB, Inc. (Catalog No. TL5025). Prior to the ELISA, cecal contents were resuspended in PBS by mass. The Toxin A/B ELISA was performed according to the manufacturer's instructions. Mice were treated with RX 821002 and toxin A/B levels in CDI cecal content were determined.

[5] = test system: cytokines; test: Luminex 32-plex cytokine levels in cecal tissue of CDI mice; details: IL-2, IL-4, IL-10, IL-12 (p40, p70), IL-15, MIP-1a, MIP-1b, LIX, VEGF, IL-5, GM-CSF, M-CSF, G-CSF, Eotaxin, IL-1b, IL-6, LIF, IP-10, KC, MCP-1, MIP2, MIG, IFNγ, IL-1a, IL-9, TNFa
Experimental: The levels of numerous cytokines were tested in PBS-treated mice and mice administered 6-OHDA.

[6] = test system: eosinophils, neutrophils, monocytes; test: Infiltrating colonic immune cells in CDI mice by flow cytometry; details: for monocyte levels / neutrophil levels: 6-OHDA vs PBS/saline, desipramine vs 6-OHDA alone
Experimental: To determine whether the sympathetic nervous system was necessary for a mounting of the inflammatory response, the infiltrating immune cell response in 6-OHDA-treated mice was measured by flow cytometry.

[7] = CDI mouse model, 6-OHDA 80 mg/kg i.p., propranolol, SR 59230A, RX 821002 10 mg/kg i.p., nepicastat oral gavage

NCc1c[nH]c(=S)n1[C@H]1CCc2c(F)cc(F)cc2C1 [nepicastat hydrochloride, 5-(Aminomethyl)-1-[(2S)-5,7-difluoro-1,2,3,4-tetrahydro-2-naphthalenyl]-1,3-dihydro-2H-imidazole-2-thione]
effect on survival / CDI-induced mortality versus negative control [1, 7]: protected against CDI-induced mortality; also recorded: significantly improved survival | effect on survival / CDI-induced mortality versus negative control ([1]; CDI mouse model, 6-OHDA 80 mg/kg i.p., propranolol, SR 59230A, RX 821002 10 mg/kg i.p., nepicastat oral gavage, listed as nepicastat): greatly reduced the incidence of mortality | clinical score versus ORA-PLUS vehicle ([1]; CDI mouse model): statistically significantly lower | clinical score versus ORA-PLUS vehicle ([1]; CDI mouse model, listed as Nepicastat): significantly better clinical scores

COC(=O)[C@@H]1[C@H]2C[C@H]3c4[nH]c5ccccc5c4CCN3C[C@@H]2CC[C@@H]1O [yohimbine, methyl(1S,15R,18S,19R,20S)-18-hydroxy-1,3,11,12,14,15,16,17,18,19,20,21-dodecahydroyohimban-19-carboxylate]
effect on survival / CDI-induced mortality versus negative control [1, 7]: statistically significant amelioration of CDI induced mortality

COC1(C2=NCCN2)COc2ccccc2O1 (centres unmarked) [RX 821002, 2-(3-methoxy-2H-1,4-benzodioxin-3-yl)-4,5-dihydro-1H-imidazole]
effect on survival / CDI-induced mortality versus negative control [1, 7]: statistically significant difference in percent survival; also recorded: drastically reduced; also recorded: ameliorated CDI induced mortality; also recorded: protection | C. difficile burden, colony-forming units (CFU)/mg/ml, versus PBS [2]: no difference | CDI colonization (GDH ELISA) versus PBS [3]: no effect | toxin A/B levels in CDI cecal content [4]: reduced

NCCc1cc(O)c(O)cc1O [6-OHDA, 6-hydroxydopamine]
effect on survival / CDI-induced mortality versus negative control ([1]; mouse, in vivo): strikingly ameliorated the incidence of mortality; also recorded: complete protection from death | mice still alive through day 5 post-infection ([1]; mouse, in vivo): 100% | weight loss versus control ([1]; mouse, in vivo): significantly (p<0.001) reduced; also recorded: strikingly ameliorated | mice still alive at day 7 post-infection ([1]; mouse, in vivo, ip, 80 mg/kg): 90% and 80% | cytokine levels versus PBS-treated mice [5]: statistically significantly reduced; also recorded: lower amounts of cytokines | cytokine levels versus PBS-treated mice ([5]; listed as 6-hydroxydopamine): block in pro-inflammatory cytokine response | monocyte levels [6]: not significantly reduced | neutrophil levels [6]: significantly reduced; also recorded: less representative of the colonic immune cells | eosinophil levels ([6]; vs PBS/Saline): did not reach statistical significance

CNCCCN1c2ccccc2CCc2ccccc21 [desipramine, 3-(10,11-dihydro-5H-dibenzo[b,f]azepin-5-yl)-N-methylpropan-1-amine]
effect on survival / CDI-induced mortality versus negative control ([1]; mouse, in vivo): prevented the protective effect of 6-OHDA on the incidence of mortality | monocyte levels [6]: statistically significant elevation | neutrophil levels [6]: negated this reduction

CCc1ccccc1OC[C@@H](O)CN[C@H]1CCCc2ccccc21 [SR 59230A, (2S)-1-(2-ethylphenoxy)-3-[[(1S)-1,2,3,4-tetrahydronaphthalen-1-yl]amino]propan-2-ol]
effect on survival / CDI-induced mortality versus negative control [1, 7]: increased the incidence of mortality; also recorded: exacerbated CDI disease progression | mice dead prior to day 3 post-infection ([1]; CDI mouse model, SR 59230A 10 mg/kg i.p.): 100%
